Experimental data taken from patent US20080004290A1, “Anti-Cancer Agents” (THE UNIVERSITY OF QUEENSLAND, priority 2003, published 2008).
Where two headings read alike, the source gives them in different places.

Tests used:
Assay type in all cases: cell-based, human
[1] = system: MM96L melanoma cells; experiment: Cell survival assay (clonogenic survival, SRB); conditions: for IC50: Homo sapiens, MM96L; for SI (Selectivity Index = IC50 (NFF)/IC50 (MM96L)): NFF vs MM96L; for Selectivity Index MM96L: Table 13, S enantiomer, IC50(NFF)/IC50(cancer cell line)
Outline: (§1)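 Cells (5×10^3/well, RPMI 1640 with 10% FCS) treated 24 h with compound at 0.01-10 μg/mL, then washed and grown 72 h drug-free at 37 °C, 5% CO2. Survival read by SRB staining after methylated-spirit fixation, absorbance 564 nm.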

[2] = system: DU145 prostate cancer cells; experiment: Cell survival assay (SRB); conditions: for IC50: Homo sapiens, DU-145; for Selectivity Index DU145: Table 13, S enantiomer, IC50(NFF)/IC50(cancer cell line)
Experimental: (§2) Cell Lines and Culture Medium. All cell lines used in this study have been described previously (Parsons et al., 1986; Todaro et al., 1980; Glenn et al., 2004). All cell lines were cultured in 10% heat-inactivated foetal calf serum (CSL, Australia) in RPMI 1640 medium supplemented with 100 U/mL penicillin, 100 μg/mL streptomycin, and 3 mM HEPES at 5% CO2, 99% humidity at 37° C. Primary human fibroblasts were obtained from neonatal foreskins and cultured in the above medium. Routine mycoplasma tests were performed using Hoechst stain^i and were always negative.
(§3) Cell Survival Assay. Cells were plated into 96-well microtitre plates at 5×10^3 cells/well, and allowed to adhere overnight. Test compounds were added to culture medium at the indicated concentrations, and plates incubated in the above conditions for 24 hours. Following this incubation period, compounds and media were removed, and replaced with fresh culture medium. Cells were then grown for a further 72 hours before assay using sulforhodamine B (SRB; Sigma, St. Louis, Mo.) as previously described. Briefly, the culture medium was removed from the 96-well microtitre plates and the plates washed twice with phosphate buffered saline (PBS), before the cells were fixed with methylated spirits for 15 minutes. The plates were then rinsed with tap water and the fixed cells stained with 50 μL/well of SRB solution (0.4% sulforhodamine B (w/v) in 1% (v/v) acetic acid) over a period of 1 hour. The SRB solution was then removed from the wells and the plates rapidly washed two times with 1% (v/v) acetic acid. Protein bound dye was then solubilised with the addition of 100 μL of 10 mM unbuffered Tris, and incubated for 15 min at 25° C. Plates were then read at 564 nm on a VERSA max tunable microplate reader (Molecular Devices, Sunnyvale, Calif.).
(§4) For comparison their results are also shown for MM96L and NFF cell lines.

[3] = system: JAM ovarian cancer cells; experiment: Cell survival assay (SRB); conditions: for IC50: Homo sapiens; for Selectivity Index JAM: Table 13, S enantiomer, IC50(NFF)/IC50(cancer cell line)
Experimental: as §2, §3, §4

[4] = system: MCF-7 breast cancer cells; experiment: Cell survival assay (SRB); conditions: for IC50: Homo sapiens, MCF7; for Selectivity Index MCF-7: Table 13, S enantiomer, IC50(NFF)/IC50(cancer cell line)
Experimental: as §2, §3, §4

[5] = system: CI-80-13S ovarian cancer cells; experiment: Cell survival assay (SRB); conditions: for IC50: Homo sapiens; for Selectivity Index CI80-13S: Table 13, S enantiomer, IC50(NFF)/IC50(cancer cell line)
Experimental: as §2, §3, §4

[6] = system: DO4 melanoma cells; experiment: Cell survival assay (SRB); conditions: Homo sapiens, DO4; Table 10; standard deviations in parentheses; read-out: Cell line IC50 (μM) DO4
Experimental: as §2, §3, §4

[7] = system: SkMel28 melanoma cells; experiment: Cell survival assay (SRB); conditions: for IC50: Homo sapiens; for Selectivity Index SK-MEL-28: Table 13, S enantiomer, IC50(NFF)/IC50(cancer cell line)
Experimental: as §2, §3, §4

[8] = system: NFF, neonatal foreskin fibroblasts; experiment: Cell survival assay (clonogenic survival, SRB), normal cells; conditions: Homo sapiens, Fibroblast
Outline: as §1

[9] = system: SK-MEL-5 cells; experiment: Cell survival assay (SRB); conditions: for IC50: Homo sapiens, SK-MEL-5, read-out: Cytoselectivities (nM) SK-MEL-5; for Selectivity Index SK-MEL-5: Table 13, S enantiomer, IC50(NFF)/IC50(cancer cell line)
Experimental: as §2, §3

[10] = system: PC-3 cells; experiment: Cell survival assay (SRB); conditions: for IC50: Homo sapiens, PC-3, read-out: Cytoselectivities (nM) PC-3; for Selectivity Index PC-3: Table 13, S enantiomer, IC50(NFF)/IC50(cancer cell line)
Experimental: as §2, §3

[11] = system: HT29 cells; experiment: Cell survival assay (SRB); conditions: for IC50: Homo sapiens, HT-29, HT29 (colon), read-out: Cytoselectivities (nM) HT29; for Selectivity Index HT29: Table 13, S enantiomer, IC50(NFF)/IC50(cancer cell line)
Experimental: as §2, §3

[12] = system: HOP62 cells; experiment: Cell survival assay (SRB); conditions: for IC50: Homo sapiens, HOP-62, HOP62 (lung), read-out: Cytoselectivities (nM) HOP62; for Selectivity Index HOP62: Table 13, S enantiomer, IC50(NFF)/IC50(cancer cell line)
Experimental: as §2, §3

[13] = system: H520 cells; experiment: Cell survival assay (SRB); conditions: for IC50: Homo sapiens, NCI-H520, read-out: Cytoselectivities (nM) H520; for Selectivity Index H520: Table 13, S enantiomer, IC50(NFF)/IC50(cancer cell line)
Experimental: as §2, §3

[14] = system: T-47D cells; experiment: Cell survival assay (SRB); conditions: for IC50: Homo sapiens, T47D, read-out: Cytoselectivities (nM) T-47D; for Selectivity Index T-47D: Table 13, S enantiomer, IC50(NFF)/IC50(cancer cell line)
Experimental: as §2, §3

[15] = system: A549 cells; experiment: Cell survival assay (SRB); conditions: for IC50: Homo sapiens, A549 (lung), read-out: Cytoselectivities (nM) A549; for Selectivity Index A549: Table 13, S enantiomer, IC50(NFF)/IC50(cancer cell line)
Experimental: as §2, §3

[16] = system: Col208 cells; experiment: Cell survival assay (SRB); conditions: for IC50: Homo sapiens, Col208 (colon), read-out: Cytoselectivities (nM) Col208; for Selectivity Index Col208: Table 13, S enantiomer, IC50(NFF)/IC50(cancer cell line)
Experimental: as §2, §3

[17] = MM96L melanoma, 24 h with compound, further 72 h growth, SRB, read-out: IC50 (uM) MM96L
[18] = Table 12, read-out: Cytoselectivities (nM) MM96L
[19] = DU145 (prostate), read-out: Cytoselectivities (nM) DU145
[20] = read-out: Cytoselectivities (nM) JAM
[21] = MCF-7 (breast), read-out: Cytoselectivities (nM) MCF-7
[22] = read-out: Cytoselectivities (nM) CI80-13S
[23] = SK-MEL-28 (melanoma), read-out: Cytoselectivities (nM) SK-MEL-28
[24] = NFF normal fibroblasts, 24 h with compound, further 72 h growth, SRB, read-out: IC50 (uM) NFF

## CN(C)c1ccc(C(=O)N[C@@H](CSCCCC(=O)NO)C(=O)Nc2cccnc2)cc1 [Example 78]
[1]; 24 h, Table 6, 24 hours with compound, further growth, SRB, read-out: IC50 (μM) MM96L
  IC50: 2.1 ± 0.1 µM
[1]; Table 10, standard deviations in parentheses, read-out: Cell line IC50 (μM) MM96L
  IC50: 0.51 µM
[1]; Table 6, IC50 (NFF)/IC50 (MM96L)
  Selectivity: 5.6
[2]; Table 10, standard deviations in parentheses, read-out: Cell line IC50 (μM) DU145
  IC50: 1.06 µM
[3]; Table 10, standard deviations in parentheses, read-out: Cell line IC50 (μM) JAM
  IC50: 2.3 µM
[4]; Table 10, standard deviations in parentheses, read-out: Cell line IC50 (μM) MCF7
  IC50: 0.97 µM
[5]; C180-13S, Table 10, standard deviations in parentheses, read-out: Cell line IC50 (μM) C18013S
  IC50: 1.36 µM
[6]
  IC50: 2.48 µM
[7]; SK-MEL-28, Table 10, standard deviations in parentheses, read-out: Cell line IC50 (μM) SkMel
  IC50: 2.33 µM
[8]; 24 h, Table 6, 24 hours with compound, further growth, SRB, read-out: IC50 (μM) NFF
  IC50: 11 ± 1 µM
[8]; Table 10, standard deviations in parentheses, read-out: Cell line IC50 (μM) NFF
  IC50: 3.6 µM

## O=C(CCCCC[C@H](NC(=O)OCc1ccccc1)C(=O)Nc1cccc2cccnc12)NO [Example 148]
[9]
  IC50: 70 nM
  Selectivity Index SK-MEL-5: 6
[10]
  IC50: 528 nM
  Selectivity Index PC-3: 0.9
[11]
  IC50: 334 nM
  Selectivity Index HT29: 1.4
[12]
  IC50: 226 nM
  Selectivity Index HOP62: 2
[13]
  IC50: 118 nM
  Selectivity Index H520: 4
[14]
  IC50: 93 nM
  Selectivity Index T-47D: 5
[15]
  IC50: 248 nM
  Selectivity Index A549: 2
[16]
  IC50: 122 nM
  Selectivity Index Col208: 4
[1]; [17]
  IC50: 0.043 µM
[1]; [18]
  IC50: 0.108 µM
[1]; most preferred compounds, exemplary examples, read-out: potency of IC50 against the MM96 melanoma cells
  IC50: ≤ 0.5 µM
[1]
  SI (Selectivity Index = IC50 (NFF)/IC50 (MM96L)): 10.5
  Selectivity Index MM96L: 4
[2]; [19]
  IC50: 0.131 µM
[2]
  Selectivity Index DU145: 3
[3]; [20]
  IC50: 0.194 µM
[3]
  Selectivity Index JAM: 2
[4]; [21]
  IC50: 0.122 µM
[4]
  Selectivity Index MCF-7: 4
[5]; [22]
  IC50: 0.124 µM
[5]
  Selectivity Index CI80-13S: 4
[7]; [23]
  IC50: 0.146 µM
[7]
  Selectivity Index SK-MEL-28: 3
[8]; [24]
  IC50: 0.452 µM

## CC(C)COC(=O)N[C@@H](CCCCCC(=O)NO)C(=O)Nc1cccc2cccnc12 [Example 149]
[9]
  IC50: 100 nM
  Selectivity Index SK-MEL-5: 0.8
[10]
  IC50: 651 nM
  Selectivity Index PC-3: 0.1
[11]
  IC50: 360 nM
  Selectivity Index HT29: 0.2
[12]
  IC50: 267 nM
  Selectivity Index HOP62: 0.3
[13]
  IC50: 129 nM
  Selectivity Index H520: 0.6
[14]
  IC50: 198 nM
  Selectivity Index T-47D: 0.4
[15]
  IC50: 291 nM
  Selectivity Index A549: 0.3
[16]
  IC50: 395 nM
  Selectivity Index Col208: 0.2
[1]; [17]
  IC50: 0.023 µM
[1]; [18]
  IC50: 0.116 µM
[1]
  SI (Selectivity Index = IC50 (NFF)/IC50 (MM96L)): 3.5
  Selectivity Index MM96L: 0.7
[2]; [19]
  IC50: 0.13 µM
[2]
  Selectivity Index DU145: 0.6
[3]; [20]
  IC50: 0.221 µM
[3]
  Selectivity Index JAM: 0.4
[4]; [21]
  IC50: 0.138 µM
[4]
  Selectivity Index MCF-7: 0.6
[5]; [22]
  IC50: 0.149 µM
[5]
  Selectivity Index CI80-13S: 0.5
[7]; [23]
  IC50: 0.17 µM
[7]
  Selectivity Index SK-MEL-28: 0.5
[8]; [24]
  IC50: 0.081 µM
